Values joined by “and” are separate entries in the source; they are usually repeats but may differ in a detail not shown here. Equal values may be shown once. Each block holds one compound with its values, some of them ahead of it.
Tested on: OVCAR-5 complex spheroids, viability
Assay: Anticancer human tumor OVCAR-5 cell line growth inhibition;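 further: spheroids exposed to agents for seven days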;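 on viability, T/C: 100% = DMSO vehicle control wells viability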
Conditions: for viability, T/C: stronger effect = lower value
Source text: Multicellular complex tumor spheroid response to LSD1 Inhibitor Iadademstat in combination with a variety of drugs and investigational agents in selected tumor cell lines
The current study was undertaken to assess response to LSD1 inhibitors in combination with standard-of-care drugs and investigational agents in solid tumor complex spheroid models as well as in the K-562 leukemia. Complex spheroids include a stromal component modeled by human endothelial cells (HUVEC) and fibroblasts modeled by human mesenchymal stem cells (MSCs). The concentration ranges selected for each drug and investigational agent were based upon clinically achievable concentrations if the clinical Cmax of the agent was known.
Compounds. The drugs and investigational agents used in this study are listed on Table 1. All of the agents used, including staurosporine (NSC755774) and gemcitabine (NSC613327), were obtained from the Developmental Therapeutics Program, NCI. FDA-approved anticancer drugs are available from the NCI at http://dtp.nci.nih.gov/branches/dscb/oncology_drugset_explanation.html. Drugs and investigational agents were >95% pure by proton nuclear magnetic resonance (NMR) and liquid chromatography/mass spectrometry (LC/MS). Stock solutions were prepared at 400x in DMSO, stored at -70 degrees C, and diluted in fresh medium prior to their use. The final concentration of DMSO in cell culture wells never exceeded 0.25% (v/v). The FDA-approved anticancer drug set is available from the Developmental Therapeutics Program at https://dtp.cancer.gov/organization/dscb/obtaining/available_plates.htm. All drugs and investigational agents were tested over a range starting from a high concentration at or near the clinical Cmax and decreasing in half-log increments. If the clinical Cmax for an agent had not been determined, the highest concentration tested was 10 microM.
Cell Lines. The patient-derived cancer cell (PDC) lines: 292921-168-R-J2-PDC, K24384-001-R-PDC, and 521955-158-R2-J5-PDC pancreatic carcinomas, 556581-035-R-J1 ovarian carcinoma, 324938-238-R-J1-PDC, 855422-203-R-J1-PDC and 883617-216-R-J1-PDC urothelial bladder carcinomas, 743489-274-T-PDC renal cell carcinoma, 138582-R-J1 Merkel cell tumor, K60290-347-R-J1 and K57222-313-R-J1-PDC glioblastomas, 653999-131-R-J2-PDC, LG0703-F948-PDC, and 349418-098-R-PDC non-small cell lung carcinomas, 885512-296-R-J2-PDC, 171881-019-R-J1-PDC breast carcinomas and 186277-243-T-J2-PDC and 233499-124-R-J2-PDC colon carcinomas were obtained from the NCI Patient-Derived Models Repository (PDMR, https://pdmr.cancer.gov). The established cell lines NCI/ADR-RES (RRID:CVCL_14520 and OVCAR-5 (RRID:CVCL_1628) ovarian carcinomas, 786-O (RRID:CVCL_1051) and A498 […] renal cell carcinoma, NCI-H211 (ATCC, cat. CRL-5824; RRID:CVCL_1529), NCI-H196 (ATCC, cat. CRL-5823, RRID:CVCL_1509), SW 1271 (ATCC, cat. CRL-2177, RRID:CVCL_1716) and NCI-H1876 (ATCC, cat. CRL-5902, RRID:CVCL_1503) small cell lung carcinomas, MDA-MB-231 (RRID:CVCL_0062) and MDA-MB-468 (RRID:CVCL_0419)breast carcinomas (10-12). Pooled donor human umbilical vein endothelial cells (HUVEC, Lonza, cat. CC-2519) and human mesenchymal stem cells (hMSC, Lonza, cat. PT-2501) were purchased from Lonza (Walkersville, MD).
Cell Culture. All cells were maintained in an incubator at 37 degrees C and 5% CO2 with 95% humidity. The PDC lines were cultured according to standard operating procedures established by the NCI PDMR (https://pdmr.cancer.gov). Briefly all PDCs were thawed and cultured in Matrigel-coated flasks prepared with a working solution of 1X Ham's F-12 nutrient mix, without supplementation (Invitrogen, Waltham, MA, cat. 11765054), 100 U/mL penicillin-streptomycin (Invitrogen, cat. 15140122), and 2.5% Matrigel (Corning Inc., Corning, NY, cat. 354248) for the first three passages. […]

[1] = curve of first compound, second compound 0.1 µM
[2] = curve of first compound, second compound 0.316 µM
[3] = curve of first compound, second compound 1 µM
[4] = curve of first compound, second compound 3.16 µM
[5] = curve of first compound, second compound 10 µM
[6] = second compound 0.1 µM, first compound 0.00949 µM
[7] = second compound 0.1 µM, first compound 0.03 µM
[8] = second compound 0.1 µM, first compound 0.0949 µM
[9] = second compound 0.1 µM, first compound 0.3 µM
[10] = second compound 0.316 µM, first compound 0.00949 µM
[11] = second compound 0.316 µM, first compound 0.03 µM
[12] = second compound 0.316 µM, first compound 0.0949 µM
[13] = second compound 0.316 µM, first compound 0.3 µM
[14] = second compound 1 µM, first compound 0.00949 µM
[15] = second compound 1 µM, first compound 0.03 µM
[16] = second compound 1 µM, first compound 0.0949 µM
[17] = second compound 1 µM, first compound 0.3 µM
[18] = second compound 3.16 µM, first compound 0.00949 µM
[19] = second compound 3.16 µM, first compound 0.03 µM
[20] = second compound 3.16 µM, first compound 0.0949 µM
[21] = second compound 3.16 µM, first compound 0.3 µM
[22] = second compound 10 µM, first compound 0.00949 µM
[23] = second compound 10 µM, first compound 0.03 µM
[24] = second compound 10 µM, first compound 0.0949 µM
[25] = second compound 10 µM, first compound 0.3 µM
[26] = second compound 0.1 µM, first compound 0.000949 µM
[27] = second compound 0.1 µM, first compound 0.003 µM
[28] = second compound 0.316 µM, first compound 0.000949 µM
[29] = second compound 0.316 µM, first compound 0.003 µM
[30] = second compound 1 µM, first compound 0.000949 µM
[31] = second compound 1 µM, first compound 0.003 µM
[32] = second compound 3.16 µM, first compound 0.000949 µM
[33] = second compound 3.16 µM, first compound 0.003 µM
[34] = second compound 10 µM, first compound 0.000949 µM
[35] = second compound 10 µM, first compound 0.003 µM

Compound: O=C(C=Cc1cccc(S(=O)(=O)Nc2ccccc2)c1)NO + NC1CCC(NC2CC2c2ccccc2)CC1
- IC50 [1]: 157 nM
- IC50 [2]: 172 nM
- IC50 [3]: 192 nM
- IC50 [4]: 167 nM
- IC50 [5]: 173 nM
- viability, T/C [6]: 98.5%
- viability, T/C [7]: 92.8%
- viability, T/C [8]: 62.8%
- viability, T/C [9]: 31.2%
- viability, T/C (second compound 0.1 µM, first compound 0.949 µM): 15.3%
- viability, T/C (second compound 0.1 µM, first compound 3 µM): 4.12%
- viability, T/C [10]: 95.7%
- viability, T/C [11]: 89.1%
- viability, T/C [12]: 64.6%
- viability, T/C [13]: 35.5%
- viability, T/C (second compound 0.316 µM, first compound 0.949 µM): 14.4%
- viability, T/C (second compound 0.316 µM, first compound 3 µM): 3.93%
- viability, T/C [14]: 106%
- viability, T/C [15]: 96%
- viability, T/C [16]: 69.7%
- viability, T/C [17]: 37.8%
- viability, T/C (second compound 1 µM, first compound 0.949 µM): 14.3%
- viability, T/C (second compound 1 µM, first compound 3 µM): 6.24%
- viability, T/C [18]: 88%
- viability, T/C [19]: 86.1%
- viability, T/C [20]: 62.2%
- viability, T/C [21]: 35.3%
- viability, T/C (second compound 3.16 µM, first compound 0.949 µM): 15.6%
- viability, T/C (second compound 3.16 µM, first compound 3 µM): 3.02%
- viability, T/C [22]: 89.5%
- viability, T/C [23]: 89.2%
- viability, T/C [24]: 60%
- viability, T/C [25]: 37.8%
- viability, T/C (second compound 10 µM, first compound 0.949 µM): 16.7%
- viability, T/C (second compound 10 µM, first compound 3 µM): 2.99%

Compound: CCc1c2c(nc3ccc(O)cc13)-c1cc3c(c(=O)n1C2)COC(=O)[C@]3(O)CC + NC1CCC(NC2CC2c2ccccc2)CC1
- IC50 [1]: < 0.949 nM
- IC50 [2]: < 0.949 nM
- IC50 [3]: < 0.949 nM
- IC50 [4]: < 0.949 nM
- IC50 [5]: < 0.949 nM
- viability, T/C [26]: 36.5%
- viability, T/C [27]: 20.8%
- viability, T/C [6]: 9.21%
- viability, T/C [7]: 4.18%
- viability, T/C [8]: 1.08%
- viability, T/C [9]: 0.71%
- viability, T/C [28]: 37%
- viability, T/C [29]: 21.9%
- viability, T/C [10]: 10.2%
- viability, T/C [11]: 5.04%
- viability, T/C [12]: 1.52%
- viability, T/C [13]: 0.83%
- viability, T/C [30]: 39.9%
- viability, T/C [31]: 25.3%
- viability, T/C [14]: 11.1%
- viability, T/C [15]: 5.17%
- viability, T/C [16]: 1.3%
- viability, T/C [17]: 0.78%
- viability, T/C [32]: 41.6%
- viability, T/C [33]: 24.6%
- viability, T/C [18]: 12.8%
- viability, T/C [19]: 5.77%
- viability, T/C [20]: 1.49%
- viability, T/C [21]: 0.71%
- viability, T/C [34]: 41%
- viability, T/C [35]: 25.4%
- viability, T/C [22]: 12.4%
- viability, T/C [23]: 5.97%
- viability, T/C [24]: 1.81%
- viability, T/C [25]: 2.3%

Compound: Nc1ncn(C2CC(O)C(CO)S2)c(=O)n1 (stereo unspecified) + NC1CCC(NC2CC2c2ccccc2)CC1
- IC50 [1]: > 300 nM
- IC50 [2]: > 300 nM
- IC50 [3]: > 300 nM
- IC50 [4]: > 300 nM
- IC50 [5]: > 300 nM
- viability, T/C [26]: 119%
- viability, T/C [27]: 104%
- viability, T/C [6]: 111%
- viability, T/C [7]: 99.6%
- viability, T/C [8]: 92.2%
- viability, T/C [9]: 77%
- viability, T/C [28]: 112%
- viability, T/C [29]: 102%
- viability, T/C [10]: 105%
- viability, T/C [11]: 94.6%
- viability, T/C [12]: 93.4%
- viability, T/C [13]: 80.2%
- viability, T/C [30]: 102%
- viability, T/C [31]: 99.5%
- viability, T/C [14]: 101%
- viability, T/C [15]: 89.8%
- viability, T/C [16]: 93.9%
- viability, T/C [17]: 80.5%
- viability, T/C [32]: 92%
- viability, T/C [33]: 101%
- viability, T/C [18]: 94.1%
- viability, T/C [19]: 96.9%
- viability, T/C [20]: 89%
- viability, T/C [21]: 75.8%
- viability, T/C [34]: 91%
- viability, T/C [35]: 81.9%
- viability, T/C [22]: 85.9%
- viability, T/C [23]: 83.7%
- viability, T/C [24]: 82.7%
- viability, T/C [25]: 71%

More lines, main results first:

- IC50 (curve of compound): > 3000 nM
Compound: CCN(c1cc(-c2ccc(CN3CCOCC3)cc2)cc(C(=O)NCc2c(C)cc(C)[nH]c2=O)c1C)C1CCOCC1
- viability, T/C (compound 0.00949 µM): 101% and 110%
- viability, T/C (compound 0.03 µM): 102% and 107%
- viability, T/C (compound 0.0949 µM): 104% and 103%
- viability, T/C (compound 0.3 µM): 102% and 97.2%
- viability, T/C (compound 0.949 µM): 98.4% and 103%
- viability, T/C (compound 3 µM): 100% and 109%

- IC50 (curve of compound): < 0.949 nM
Compound: Nc1ccn(C2OC(CO)C(O)C2(F)F)c(=O)n1 (stereo unspecified)
- viability, T/C (compound 0.000949 µM): 27.5% and 26.9%
- viability, T/C (compound 0.003 µM): 29.6% and 29.3%
- viability, T/C (compound 0.00949 µM): 29.2% and 28.1%
- viability, T/C (compound 0.03 µM): 28.8% and 29.1%
- viability, T/C (compound 0.0949 µM): 30.1% and 28.8%
- viability, T/C (compound 0.3 µM): 29.1% and 28.3%

- IC50 (curve of compound): 718 nM and 501 nM
Compound: COc1cc(C2c3cc4c(cc3C(OC3OC5COC(C)OC5C(O)C3O)C3COC(=O)C23)OCO4)cc(OC)c1O (stereo unspecified)
- viability, T/C (compound 0.00949 µM): 108% and 107%
- viability, T/C (compound 0.03 µM): 110% and 94.7%
- viability, T/C (compound 0.0949 µM): 101% and 84.4%
- viability, T/C (compound 0.3 µM): 69.6% and 60.9%
- viability, T/C (compound 0.949 µM): 44% and 35.2%
- viability, T/C (compound 3 µM): 39% and 33.6%
